{"source": "paper PMC9721424", "about": "“Novel N-methylsulfonyl-indole derivatives: biological activity and COX-2/5-LOX inhibitory effect with improved gastro protective profile and reduced cardio vascular risks” (Journal of Enzyme Inhibition and Medicinal Chemistry, 2022)"}
{"test_system": "stomach", "assay": "Histopathological examination of stomach", "type": "in vivo, rats", "details": "rat, in vivo", "description": "In brief, the stomachs of each animal group’s rat were fixed in 10% neutral buffered formalin for 48 h. The sections were then dehydrated, cleared, fixed in paraffin, sectioned ([…]), and stained with H&E stain."}
{"smiles": "COc1ccc2c(c1)c(CC(=O)O)c(C)n2C(=O)c1ccc(Cl)cc1", "note": "[Indomethacin, reference compound]", "stomach histopathology finding": "multiple complete and perforating ulcers and superficial erosions"}
{"test_system": "not listed separately", "assay": "Dissolution of DPPH samples in DMSO/methanol", "type": "physicochemical", "details": "DPPH sample preparation, methanol: DMSO 9:1 v/v", "description": "Preparation of samples was occurred at the following concentrations: Samples 3a, 4a, 5b, 5d and 5e at final concentrations of 0.5 mg/ml in methanol: DMSO 9:1 v/v. Samples 4b and 4d at final concentrations 0.025 mg/ml in methanol: DMSO 9:1 v/v, sample 5a at final concentrations 0.25 mg/ml in methanol: DMSO 9:1 v/v, Sample 4c, 5c and 4e at final concentrations 0.05 mg/ml in methanol: DMSO 9:1 v/v, sample 3b at final concentration 0.75 mg/ml methanol: DMSO 9:1 v/v. A stock solution of 100 µM concentration of Trolox, a standard used in this experiment, was prepared in methanol from which seven concentrations were prepared, including 50, 40, 30, 20, 15, 10 and 5 µM."}
{"smiles": "CCN1CC(=O)S/C1=N\\N=C\\c1cn(S(C)(=O)=O)c2ccccc12", "note": "[Compound 5b]", "solubility of sample in DMSO and methanol": "didn’t dissolve in DMSO nor in methanol"}
{"molecular_target": "T1, COX-2 (Ovis aries, UniProt P79208)", "T1 sequence (P79208 17-603)": "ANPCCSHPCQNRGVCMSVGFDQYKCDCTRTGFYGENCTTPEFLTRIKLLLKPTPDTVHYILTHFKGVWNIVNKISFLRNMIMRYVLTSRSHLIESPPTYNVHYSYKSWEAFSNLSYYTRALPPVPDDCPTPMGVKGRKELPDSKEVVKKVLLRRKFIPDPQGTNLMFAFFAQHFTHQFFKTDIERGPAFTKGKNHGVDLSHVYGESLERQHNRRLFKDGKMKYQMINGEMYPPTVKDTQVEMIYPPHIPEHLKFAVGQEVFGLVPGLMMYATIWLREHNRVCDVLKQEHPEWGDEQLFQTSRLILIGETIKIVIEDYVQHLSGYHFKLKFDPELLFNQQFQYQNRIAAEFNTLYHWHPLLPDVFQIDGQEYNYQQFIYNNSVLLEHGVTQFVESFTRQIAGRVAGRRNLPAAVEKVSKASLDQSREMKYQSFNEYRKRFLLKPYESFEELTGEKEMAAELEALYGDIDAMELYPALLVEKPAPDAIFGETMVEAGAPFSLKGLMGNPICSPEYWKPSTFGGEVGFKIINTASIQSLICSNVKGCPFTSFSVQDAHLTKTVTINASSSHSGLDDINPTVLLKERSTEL", "assay": "COX-2 inhibition, enzyme immune assay (EIA) kit", "type": "biochemical, ovine", "details": "COX-2 selectivity index"}
{"smiles": "CCN1CC(=O)S/C1=N\\N=C\\c1cn(S(C)(=O)=O)c2ccccc12", "note": "[Compound 5b]", "S.I (IC50 COX-1/IC50 COX-2)": 0.25}
{"molecular_target": "T1, COX-2", "assay": "COX-2 inhibition, enzyme immune assay (EIA) kit", "type": "biochemical, ovine", "details": "lab report, COX1/COX2"}
{"smiles": "CCN1CC(=O)S/C1=N\\N=C\\c1cn(S(C)(=O)=O)c2ccccc12", "note": "[Compound 5b]", "SI": 0.249}
{"test_system": "TNF-α in RAW264.7 macrophage cells", "assay": "In vitro measurement of TNF-α in RAW264.7 macrophage cells (RT-qPCR)", "type": "cell-based", "details": "not given", "description": "Both Lipopolysaccharides (LPS) and hispidin were purchased from Sigma (Sigma-Aldrich, St. Louis, MO, USA)[40]. The foetal bovine serum (FBS) and Dulbecco’s modified Eagle’s medium (DMEM) were purchased from Hyclone (General Electric Healthcare Life Sciences, Mississauga, Canada), penicillin streptomycin (P/S) was purchased from Solarbio (Solarbio life sciences, Beijing, P. R. China). Results of all in vitro anti-inflammatory screening were obtained from the confirmatory diagnostic unit, VACSERA, Egypt.\nDMEM was used to cultivate the macrophage cells RAW264.7 (Shanghai BOGO Industrial Co., Ltd., Shanghai, China), and supplemented with 10% FBS and 1% P/S (100 U/ml and […], respectively). […] They were treated with various concentrations of hispidin, then with 1 μg/ml LPS for the indicated time.\nPBS (1 ml/well) was used to wash the cells in 24-well plates. […] For the experiments, CL Buffer included MgCl2 (M1028; Sigma) or RNasin Plus RNase Inhibitor (N2615; Promega). Before use, both Bio-Rad SPR and CL buffer were equilibrated to room temperature. […] Carefully, the resulting lysates were collected and either analysed immediately or stored frozen ([…]).\nRT-qPCR analysis was performed in one-step SYBR Green RT-qPCR. […] A CFX96 real-time PCR instrument (Bio-Rad) was used under the following protocol: 50uC for 10 min, 95uC for 5 min, 95uC for 10 s/61uC for 15 s/72uC for 30 s.\nTotal RNA purified from cells was used as an RT-qPCR quantification standard."}
{"smiles": "CCN1CC(=O)S/C1=N\\N=C\\c1cn(S(C)(=O)=O)c2ccccc12", "note": "[Compound 5b]", "TNF-α fold change": 0.18}
{"test_system": "not given", "assay": "not given", "details": "not given", "units": {"melting point": "°C"}}
{"smiles": "CCN1CC(=O)S/C1=N\\N=C\\c1cn(S(C)(=O)=O)c2ccccc12", "note": "[Compound 5b]", "melting point": "230 to 232"}
{"molecular_target": "T2, ovine COX-1 (Ovis aries, UniProt P05979)", "T2 sequence (P05979 25-600)": "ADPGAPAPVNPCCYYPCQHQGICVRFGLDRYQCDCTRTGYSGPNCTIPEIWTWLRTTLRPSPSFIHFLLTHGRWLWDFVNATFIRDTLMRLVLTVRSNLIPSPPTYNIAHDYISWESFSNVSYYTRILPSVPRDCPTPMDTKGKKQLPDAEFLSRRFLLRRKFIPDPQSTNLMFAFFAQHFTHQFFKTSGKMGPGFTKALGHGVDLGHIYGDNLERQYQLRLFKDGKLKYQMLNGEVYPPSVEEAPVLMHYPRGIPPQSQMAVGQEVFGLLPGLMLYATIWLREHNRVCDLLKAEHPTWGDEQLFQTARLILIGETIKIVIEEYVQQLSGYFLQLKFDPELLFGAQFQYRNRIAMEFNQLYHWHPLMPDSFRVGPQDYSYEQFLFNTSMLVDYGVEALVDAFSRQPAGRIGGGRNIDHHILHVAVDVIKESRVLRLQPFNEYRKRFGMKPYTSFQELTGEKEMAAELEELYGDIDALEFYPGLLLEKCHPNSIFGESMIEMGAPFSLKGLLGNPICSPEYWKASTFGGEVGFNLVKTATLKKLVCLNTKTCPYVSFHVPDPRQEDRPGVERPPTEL", "assay": "COX-1 inhibition, enzyme immune assay (EIA) kit", "details": "conc 0.1 (μM)", "units": {"COX1 %inh": "%"}, "from_the_text": "Colorimetric enzyme immunoassay (EIA) kits were done to screen for the isozyme-specific inhibition."}
{"smiles": "CCN1CC(=O)S/C1=N\\N=C\\c1cn(S(C)(=O)=O)c2ccccc12", "note": "[Compound 5b]", "COX1 %inh": 7.23}
{"molecular_target": "T2, ovine COX-1", "assay": "COX-1 inhibition, enzyme immune assay (EIA) kit", "details": "conc 1 (μM)", "units": {"COX1 %inh": "%"}}
{"smiles": "CCN1CC(=O)S/C1=N\\N=C\\c1cn(S(C)(=O)=O)c2ccccc12", "note": "[Compound 5b]", "COX1 %inh": 15.2}
{"molecular_target": "T2, ovine COX-1", "assay": "COX-1 inhibition, enzyme immune assay (EIA) kit", "details": "conc 10 (μM)", "units": {"COX1 %inh": "%"}}
{"smiles": "CCN1CC(=O)S/C1=N\\N=C\\c1cn(S(C)(=O)=O)c2ccccc12", "note": "[Compound 5b]", "COX1 %inh": 31.1}
{"molecular_target": "T2, ovine COX-1", "assay": "COX-1 inhibition, enzyme immune assay (EIA) kit", "details": "conc 100 (μM)", "units": {"COX1 %inh": "%"}}
{"smiles": "CCN1CC(=O)S/C1=N\\N=C\\c1cn(S(C)(=O)=O)c2ccccc12", "note": "[Compound 5b]", "COX1 %inh": 73.6}
{"molecular_target": "T2, ovine COX-1", "assay": "COX-1 inhibition, enzyme immune assay (EIA) kit", "details": "read-out: IC50 COX-1", "units": {"IC50": "µM"}}
{"smiles": "CCN1CC(=O)S/C1=N\\N=C\\c1cn(S(C)(=O)=O)c2ccccc12", "note": "[Compound 5b]", "IC50": "22.2 ± 0.63"}
{"molecular_target": "T3, 5-LOX enzyme (Homo sapiens, UniProt P09917)", "T3 construct": "purchased Cayman Chemical K980-100", "T3 sequence (P09917 1-674)": "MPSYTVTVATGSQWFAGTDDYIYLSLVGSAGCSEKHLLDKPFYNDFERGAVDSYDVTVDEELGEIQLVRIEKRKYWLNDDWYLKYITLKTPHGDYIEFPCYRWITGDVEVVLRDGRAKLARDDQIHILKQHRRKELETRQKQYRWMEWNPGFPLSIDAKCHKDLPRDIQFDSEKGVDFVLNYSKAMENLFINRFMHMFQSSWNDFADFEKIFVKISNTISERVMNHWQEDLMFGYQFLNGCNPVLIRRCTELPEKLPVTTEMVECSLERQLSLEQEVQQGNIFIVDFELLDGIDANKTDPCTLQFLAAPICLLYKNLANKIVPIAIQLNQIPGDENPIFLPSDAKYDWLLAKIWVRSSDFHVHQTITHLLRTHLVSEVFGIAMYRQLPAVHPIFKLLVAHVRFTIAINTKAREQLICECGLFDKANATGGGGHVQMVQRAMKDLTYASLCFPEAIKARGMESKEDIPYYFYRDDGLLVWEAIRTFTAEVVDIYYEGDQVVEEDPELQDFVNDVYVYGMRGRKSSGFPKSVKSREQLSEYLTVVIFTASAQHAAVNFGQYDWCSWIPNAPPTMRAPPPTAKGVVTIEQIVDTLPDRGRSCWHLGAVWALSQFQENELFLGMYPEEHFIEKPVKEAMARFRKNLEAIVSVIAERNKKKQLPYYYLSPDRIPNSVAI", "assay": "5-LOX inhibition, Human Lipoxygenase Inhibitor Screening Assay (EIA) kit", "type": "biochemical", "details": "not given", "description": "(§1) The ability of the test compounds to inhibit the 5-LOX enzyme (IC50 value, μM) was detected using the Cayman Human Lipoxygenase Inhibitor Screening Assay (EIA) kit (catalog no. K980-100, Cayman Chemical). The IC50 values of test compounds were measured in µM according to the manufacturer’s instructions and reported method.", "units": {"IC50": "µM"}}
{"smiles": "CCN1CC(=O)S/C1=N\\N=C\\c1cn(S(C)(=O)=O)c2ccccc12", "note": "[Compound 5b]", "IC50": "47.8 ± 2.53"}
{"molecular_target": "T3, 5-LOX enzyme", "assay": "5-LOX inhibition, Human Lipoxygenase Inhibitor Screening Assay (EIA) kit", "type": "biochemical", "details": "conc 0.1 (μM)", "description": "as §1", "units": {"5-LOX %inh": "%"}}
{"smiles": "CCN1CC(=O)S/C1=N\\N=C\\c1cn(S(C)(=O)=O)c2ccccc12", "note": "[Compound 5b]", "5-LOX %inh": 1.82}
{"molecular_target": "T3, 5-LOX enzyme", "assay": "5-LOX inhibition, Human Lipoxygenase Inhibitor Screening Assay (EIA) kit", "type": "biochemical", "details": "conc 1 (μM)", "description": "as §1", "units": {"5-LOX %inh": "%"}}
{"smiles": "CCN1CC(=O)S/C1=N\\N=C\\c1cn(S(C)(=O)=O)c2ccccc12", "note": "[Compound 5b]", "5-LOX %inh": 3.84}
{"molecular_target": "T3, 5-LOX enzyme", "assay": "5-LOX inhibition, Human Lipoxygenase Inhibitor Screening Assay (EIA) kit", "type": "biochemical", "details": "conc 10 (μM)", "description": "as §1", "units": {"5-LOX %inh": "%"}}
{"smiles": "CCN1CC(=O)S/C1=N\\N=C\\c1cn(S(C)(=O)=O)c2ccccc12", "note": "[Compound 5b]", "5-LOX %inh": 15.1}
{"molecular_target": "T3, 5-LOX enzyme", "assay": "5-LOX inhibition, Human Lipoxygenase Inhibitor Screening Assay (EIA) kit", "type": "biochemical", "details": "conc 100 (μM)", "description": "as §1", "units": {"5-LOX %inh": "%"}}
{"smiles": "CCN1CC(=O)S/C1=N\\N=C\\c1cn(S(C)(=O)=O)c2ccccc12", "note": "[Compound 5b]", "5-LOX %inh": 73.1}
